Measurements taken from US20160030407A1, “Method of Treating Inflammatory Lung Disease” (priority 2010, published 2016).

Legend:
[1] = Plasma toxicokinetics after single i.v. bolus; format: in vivo, Sprague-Dawley rats; details: for Concentration in rat plasma: Anatabine 0.1 mg/kg dose group, individual rats; for Avg. Conc. (Combined Male and Female) / Avg. Conc. (Male or Female): Rat Plasma; for half-life: Sprague-Dawley, iv
Description: Six rats (3 males and 3 females) were dosed per dose group. […] Plasma and brain homogenates were stored at −80° C. until analysis.
An additional 48 rats (24 males and 24 females) received a single intravenous dose via the tail vein at the same doses as mentioned above. At 30 and 360 minutes post administration, 6 rats (3 males and 3 females) per dose group, per time point were euthanized, bled via cardiac puncture, and perfused, and brains were collected. The brains were homogenized. Blood was spun, and plasma was collected. Plasma and brain homogenate were stored at −80° C.
Four aliquots of each dose level formulation were collected and stored at −80° C. The test compound, corresponding dose level, number of animals, and sample collection times for Phase I of the study are shown in Table 3. The test compound, corresponding dose level, number of animals, and sample collection times for Phase II of the study are shown in Table 4. The physical signs of each animal were monitored following administration of the test compound.
The animals were weighed prior to dosing and received a single i.v. dose of either test compound at a volume of 5 mL/kg. Blood was collected via the venus plexus (retro-orbital) into tubes containing (K2) EDTA. No more than 0.5 mL was collected per time point. […] The brain was removed, weighed, homogenized in sterile 0.9% saline at a volume equal to its weight, and stored at −80° C.
Plasma was separated according to the instructions for MICROTAINER® brand collection tubes (3 minutes, 2000×g). Plasma was decanted into microfuge tubes and stored at −80° C. Remaining test compound was stored at −80° C.
The amount of the test agent in the supernatant was determined by liquid chromatography tandem mass spectrometry (LC/MS/MS).
Analysis. Samples were analyzed by LC/MS/MS using an Agilent 6410 mass spectrometer coupled with an Agilent 1200 high pressure liquid chromatography (HPLC) and a CTC PAL chilled autosampler, all controlled by MassHunter software (Agilent). After separation on a hydrophilic interaction liquid chromatography (HILIC) HPLC column (Sepax) using an acetonitrile-ammonium acetate/acetic acid gradient system, peaks were analyzed by mass spectrometry (MS) using ESI ionization in multiple reaction monitoring (MRM) mode. MassHunter software was used to calculate the concentration of the test compounds in samples from the peak area using the appropriate calibration curves.

BACE-1 mRNA = BACE-1 mRNA levels in SHSY cells (RTPCR); format: cell-based, human; details: 30 minutes, TNF-α used to increase BACE expression
Text: TNF-α was used to increase BACE expression.

[2] = rat plasma, single i.v. 0.1 mg/kg, female
[3] = rat plasma, single i.v. 0.75 mg/kg, male
[4] = rat plasma, single i.v. 0.1 mg/kg, M + F
[5] = rat plasma, single i.v. 0.1 mg/kg, male
[6] = rat plasma, single i.v. 0.75 mg/kg, M + F
[7] = rat plasma, single i.v. 0.75 mg/kg, female
[8] = rat plasma, single i.v. 1.0 mg/kg, M + F
[9] = rat plasma, single i.v. 1.0 mg/kg, female
[10] = rat plasma, single i.v. 1.0 mg/kg, male

SMILES: C1=CCC(c2cccnc2)NC1 (racemic) [Anatabine, 1,2,3,6-tetrahydro-[2,3′]bipyridinyl]
- Concentration in rat plasma ([1]; rat plasma, time point 4 hr): <LLQ
- Concentration in rat plasma ([1]; rat plasma, time point 6 hr): <LLQ
- Concentration in rat plasma ([1]; rat plasma, time point 8 hr): <LLQ
- Concentration in rat plasma ([1]; rat plasma, time point 24 hr): <LLQ
- Avg. Conc. (Combined Male and Female) ([1]; Anatabine 0.1 mg/kg, 8 hr): <LLQ
- Avg. Conc. (Combined Male and Female) ([1]; Anatabine 0.1 mg/kg, 24 hr): <LLQ
- Avg. Conc. (Male or Female) ([1]; Anatabine 0.1 mg/kg, female, 8 hr): <LLQ
- Avg. Conc. (Male or Female) ([1]; Anatabine 0.1 mg/kg, female, 24 hr): <LLQ
- Avg. Conc. (Male or Female) ([1]; Anatabine 0.1 mg/kg, male, 6 hr (1st line)): <LLQ
- Avg. Conc. (Male or Female) ([1]; Anatabine 0.1 mg/kg, male, 8 hr): <LLQ
- Avg. Conc. (Male or Female) ([1]; Anatabine 0.1 mg/kg, male, 24 hr): <LLQ
- Avg. Conc. (Combined Male and Female) ([1]; Anatabine 0.75 mg/kg, 24 hr): <LLQ
- Avg. Conc. (Male or Female) ([1]; Anatabine 0.75 mg/kg, female, 24 hr): <LLQ
- Avg. Conc. (Male or Female) ([1]; Anatabine 0.75 mg/kg, male, 24 hr): <LLQ
- Avg. Conc. (Combined Male and Female) ([1]; Anatabine 1.0 mg/kg, 24 hr): <LLQ
- Avg. Conc. (Male or Female) ([1]; Anatabine 1.0 mg/kg, female, 24 hr): <LLQ
- Avg. Conc. (Male or Female) ([1]; Anatabine 1.0 mg/kg, male, 24 hr): <LLQ
- half-life [1, 2]: 1.64 ± 0.59 h
- half-life [1, 3]: 1.64 ± 0.12 h
- half-life ([1]; both sexes, rat plasma, single i.v. 0.75 mg/kg, M + F): 1.68 ± 0.09 h
- half-life ([1]; both sexes, rat plasma, single i.v. 1.0 mg/kg, M + F): 1.64 ± 0.25 h
- apparent volume of distribution (VD) compared with nicotine ([1]; rat plasma, single i.v.): significantly greater than that of nicotine
- AUC0→∞ [1, 4]: 35.0 ± 11.6 ng·h/mL
- VD [1, 4]: 6.08 ± 0.45 L/kg
- t1/2 [1, 4]: 1.44 ± 0.48 h
- AUC0→∞ [1, 2]: 37.9 ± 15.9 ng·h/mL
- VD [1, 2]: 6.52 ± 0.66 L/kg
- AUC0→∞ [1, 5]: 32.0 ± 7.7 ng·h/mL
- VD [1, 5]: 5.29 ± 0.49 L/kg
- t1/2 [1, 5]: 1.25 ± 0.32 h
- AUC0→∞ [1, 6]: 504.4 ± 63.5 ng·h/mL
- VD [1, 6]: 3.33 ± 0.13 L/kg
- AUC0→∞ [1, 7]: 544.5 ± 62.7 ng·h/mL
- VD [1, 7]: 3.19 ± 0.15 L/kg
- t1/2 [1, 7]: 1.73 ± 0.03 h
- AUC0→∞ [1, 3]: 464.4 ± 36.2 ng·h/mL
- VD [1, 3]: 3.48 ± 0.18 L/kg
- AUC0→∞ [1, 8]: 710.07 ± 88.4 ng·h/mL
- VD [1, 8]: 3.08 ± 0.16 L/kg
- AUC0→∞ [1, 9]: 788.9 ng·h/mL
- VD [1, 9]: 3.16 ± 0.15 L/kg
- t1/2 ([1]; rat plasma, single i.v. 1.0 mg/kg, female, 1 mg/kg): 1.84 h
- AUC0→∞ [1, 10]: 631.3 ng·h/mL
- VD [1, 10]: 3.01 ± 0.12 L/kg
- t1/2 ([1]; rat plasma, single i.v. 1.0 mg/kg, male, 1 mg/kg): 1.44 h
- plasma concentration between approximately 6 and 8 hours ([1]; rat, single i.v., nicotine 0.4 mg/kg, anatabine 0.1 mg/kg): below the limits of quantitation
- BACE-1 mRNA expression (BACE-1 mRNA): reduced this signal in a concentration-dependent manner
